The record followed here is patent publication US4054659A, “5,7 Dihydroxy-1-(trimethoxybenzyl)-1,2,3,H-tetrahydroisoquinolines and use thereof” (Tanabe Seiyaku Co., Ltd., priority 1974, dated 1977).

The subject of data set [1] is serotonin-creatinin sulfate-induced bronchoconstriction. As to the kind of experiment: Preventive effects against serotonin-creatinin sulfate-induced bronchoconstriction (bronchodilating activity) in anesthetized cats. The format is in vivo. Conditions: for Preventive effects against bronchoconstriction: cats, 10 μg/kg, duodenum. From the text:
The 5,7-dihydroxy-tetrahydroisoquinoline derivative (I) of the present invention or a pharmaceutically acceptable acid addition salt thereof has potent bronchodilating activity and is useful as a bronchodilator. Moreover, as compared with 6,7-dihydroxy-1-(3,4,5-trimethoxybenzyl)-1,2,3,4-tetrahydroisoquinoline, the 5,7-dihydroxy-tetrahydroisoquinoline derivative (I) of the present invention is more useful because of the longer duration of its point bronchodilating activity and/or lesser side effects (e.g., lesser increase of the heart rate). […] However, the bronchodilating activity of the former lasts for more than 3.5 hours at its maximum level, whereas the latter decreases to about 1/3 the maximum level after 3.5 hours.
(§1) Cats were anesthetized with sodium pentobarbital (40 mg/.kg, i.p.). Under artificial respiration (13 - 15 ml of air/kg/stroke, 30 strokes/minute) thereof, the cats were immobilized by intraveous injection of gallamine triethyodide (8 mg/kg). Serotonin.creatinin sulfate (=bronchoconstrictor) was injected intravenously to the cats at the dose of 20 μg/kg, and the intratracheal pressure was measured by means of a pressure transducer. Then, each one of test compounds was administered to the duodenum of the cats at the dose of 10 μg/kg, and the intratracheal pressure and the heart rate were measured with the passage of time. The bronchodilating activity was estimated by the preventive effects (%) of each test compound against bronchoconstriction.

Data set [2] has as its system heart rate. As to the kind of experiment: Increase of heart rate after duodenal administration in anesthetized cats. The class given is in vivo. Conditions: 10 μg/kg, duodenum. The method, then:
as §1

Data set [3] in a line: 50% lethal dose (LD50) by intravenous injection to mice. Conditions: mouse, in vivo. The source says:
The toxicity of the 5,7-dihydroxytetrahydroisoquinoline derivative (I) of the present invention is considerably low.

[4] abbreviates: 15 minutes after administration.
Where [5] appears, read: 30 minutes after administration.
Where [6] appears, read: 45 minutes after administration.
Where [7] appears, read: 60 minutes after administration.
[8] abbreviates: 75 minutes after administration.
Setting [9] is: 90 minutes after administration.
The mark [10] stands for this setting: 120 minutes after administration.
[11] abbreviates: 150 minutes after administration.
[12] abbreviates: 180 minutes after administration.
The mark [13] stands for this setting: 210 minutes after administration.

SMILES strings stand for the structures.

With `COc1cc(CC2NCCc3cc(O)c(O)cc32)cc(OC)c1OC.Cl` (stereo not shown) [B, 6,7-dihydroxy-1-(3,4,5-trimethoxybenzyl)-1,2,3,4-tetrahydroisoquinolin hydrochloride, reference compound], the “Preventive effects against bronchoconstriction” value is given as 21.1 ± 8.6% in data set [1] (5 minutes after administration); 71.2 ± 7.6% in data set [1] (setting [4]); 77.6 ± 5.2% in data set [1] (setting [5]); 73.9 ± 2.6% in data set [1] (setting [6]); 67.2 ± 3.4% in data set [1] (setting [7]); 62.3 ± 5.1% in data set [1] (setting [8]). In addition, the “Preventive effects against bronchoconstriction” value in data set [1] (setting [9]) was found to be 54.7 ± 6.0%; in data set [1] (setting [10]), 45.5 ± 7.5%; in data set [1] (setting [11]), 38.0 ± 8.7%; in data set [1] (setting [12]), 31.6 ± 9.5%; in data set [1] (setting [13]), 26.0 ± 7.4%. The “Bronchodilating activity remaining after 3.5 hours, as fraction of the maximum level” value in data set [1] (after 3.5 hours, duodenal administration) is “about 1/3”.

The LD50 is the dose at which mortality reaches 50%. The low end stands for a more toxic substance, the high end for a less toxic substance. With `COc1cc(CC2NCCc3c(O)cc(O)cc32)cc(OC)c1OC.Cl` (stereo not shown) [A, 5,7-dihydroxy-1-(3,4,5-trimethoxybenzyl)-1,2,3,4-tetrahydroisoquinoline hydrochloride], the “Preventive effects against bronchoconstriction” value stood at 8.5 ± 3.2% in data set [1] (5 minutes after administration); 47.9 ± 8.5% in data set [1] (setting [4]); 63.5 ± 9.9% in data set [1] (setting [5]); 69.7 ± 8.7% in data set [1] (setting [6]); 71.1 ± 7.1% in data set [1] (setting [7]); 70.7 ± 6.8% in data set [1] (setting [8]). Besides, the “Preventive effects against bronchoconstriction” value in data set [1] (setting [9]) is given as 72.5 ± 6.1%; in data set [1] (setting [10]), 71.0 ± 5.6%; in data set [1] (setting [11]) it was 70.2 ± 6.4%; in data set [1] (setting [12]), 69.1 ± 5.7%; in data set [1] (setting [13]), 64.6 ± 7.4%. Also, in data set [1] (after duodenal administration), the “Duration of bronchodilating activity at its maximum level” value is “more than 3.5 hours”. Besides, in data set [1] (duodenal administration), the “Maximum preventive effects compared with 6,7-dihydroxy-1-(3,4,5-trimethoxybenzyl)-1,2,3,4-tetrahydroisoquinoline (hydrochloride)” value is “almost the same maximum preventive effects”. Besides, the “Increase of heart rate (Number of heart beats increased/minute)” value is listed as 1.3 ± 0.3 heart beats increased/minute in data set [2] (5 minutes after administration); 10.6 ± 3.4 heart beats increased/minute in data set [2] (setting [4]); 22.2 ± 6.5 heart beats increased/minute in data set [2] (setting [5]); 21.3 ± 5.2 heart beats increased/minute in data set [2] (setting [6]); 20.0 ± 4.4 heart beats increased/minute in data set [2] (setting [7]); 18.7 ± 3.8 heart beats increased/minute in data set [2] (setting [8]). For the same compound, the “Increase of heart rate (Number of heart beats increased/minute)” value in data set [2] (setting [9]) is on record as 17.8 ± 3.0 heart beats increased/minute; in data set [2] (setting [10]) it was 17.2 ± 2.3 heart beats increased/minute; in data set [2] (setting [11]), 15.2 ± 2.1 heart beats increased/minute; in data set [2] (setting [12]), 13.7 ± 1.4 heart beats increased/minute; in data set [2] (setting [13]), 12.0 ± 1.4 heart beats increased/minute. Moreover, the LD50 in data set [3] is about 51 mg/kg.
